Source: patent US20260250291A1, “INHIBITORS OF FGFR2 AND FGFR3 AND USES THEREOF” (Insilico Medicine IP Limited, priority 2023, published 2026)
pIC50: −log10 of the molar value.

Columns and labels:
[1] = target: T1, FGFR1 (Homo sapiens, UniProt P11362); assay: FGFR biochemical assay (LanthaScreen TR-FRET), FGFR1; details: ATP 28 μM, FGFR1 0.01 nM
T1 construct: purchased Carna
Method: (§1) The following procedure was used to test the compounds described herein: • Dilute the test compounds to 100× of the final desired highest concentration in reaction by 100% DMSO. • Perform a serial dilution in a 384-well source plate by transferring 15 μL to 30 μL of […] DMSO in the next well and so forth for a total of 10 concentrations. • Dispense 100 nL of compound solution each well from the source plate to a 384-well assay plate in duplicates by Echo (Labcyte). • Prepare a solution of 2× FGFR enzyme (Carna) in kinase buffer (50 mM HEPES, pH 7.5, 10 mM MgCl2, 4 mM DTT, 0.01% Tween-20 and 0.01% BSA). The final concentration of FGFR1/2/3/4 is 0.01. 0.01, 0.1 and 1 nM, respectively. • Add 5 μL of kinase solution to each well of the compound-containing assay plate, except for low control wells without enzyme (add 5 μL of 1× kinase buffer instead). • Shake the plate and incubate at room temperature for 10 minutes (for Example 1) (or 60 min for the remaining Examples in Table 4). • Prepare the substrate solution of Fluorescein-Poly GT (Invitrogen) and ATP (Sigma) in 1× kinase reaction buffer at 2-fold of the final concentration of each reagent desired in the assay (final concentration of ATP is 28, 22, 35 and 238 μM for FGFR1/2/3/4 respectively; Fluorescein-Poly GT is fixed at 20 nM). • Add 5 μL of substrate solution to each well of the assay plate to initiate the kinase reaction. • Shake the plate shortly and incubate at room temperature for 30 minutes. • Prepare 2× detection solution in Antibody Dilution Buffer (LanthaScreen® Tb—PY20 Antibody Kit, Invitrogen). • Add 10 μL of detection solution to each well of the assay plate to stop the reaction. • Mix briefly with centrifuge and incubate at room temperature for 60 minutes before reading on a microplate reader. • Collect data on Envision with excitation at 340 nm and emission at 520 nm and 495 nm. • Calculate Ratio of RFU 520 nm/RFU 495 nm. Convert Ratio values to percent inhibition values (Percent inhibition=(max−sample Ratio)/(max−min)*100) where “min” means the Ratio of no enzyme control and “max” means the Ratio of DMSO control. • Data are analyzed and curve fitting is performed by XLFit Excel add-in version 5.4.0.8. The IC50 calculation equation is: Y=Bottom+(Top−Bottom)/(1+(IC50/X)^HillSlope.

[2] = target: T2, FGFR2 (Homo sapiens, UniProt P21802); assay: FGFR biochemical assay (LanthaScreen TR-FRET), FGFR2; details: ATP 22 μM, FGFR2 0.01 nM
T2 construct: purchased Carna
T2 sequence (P21802 22-821): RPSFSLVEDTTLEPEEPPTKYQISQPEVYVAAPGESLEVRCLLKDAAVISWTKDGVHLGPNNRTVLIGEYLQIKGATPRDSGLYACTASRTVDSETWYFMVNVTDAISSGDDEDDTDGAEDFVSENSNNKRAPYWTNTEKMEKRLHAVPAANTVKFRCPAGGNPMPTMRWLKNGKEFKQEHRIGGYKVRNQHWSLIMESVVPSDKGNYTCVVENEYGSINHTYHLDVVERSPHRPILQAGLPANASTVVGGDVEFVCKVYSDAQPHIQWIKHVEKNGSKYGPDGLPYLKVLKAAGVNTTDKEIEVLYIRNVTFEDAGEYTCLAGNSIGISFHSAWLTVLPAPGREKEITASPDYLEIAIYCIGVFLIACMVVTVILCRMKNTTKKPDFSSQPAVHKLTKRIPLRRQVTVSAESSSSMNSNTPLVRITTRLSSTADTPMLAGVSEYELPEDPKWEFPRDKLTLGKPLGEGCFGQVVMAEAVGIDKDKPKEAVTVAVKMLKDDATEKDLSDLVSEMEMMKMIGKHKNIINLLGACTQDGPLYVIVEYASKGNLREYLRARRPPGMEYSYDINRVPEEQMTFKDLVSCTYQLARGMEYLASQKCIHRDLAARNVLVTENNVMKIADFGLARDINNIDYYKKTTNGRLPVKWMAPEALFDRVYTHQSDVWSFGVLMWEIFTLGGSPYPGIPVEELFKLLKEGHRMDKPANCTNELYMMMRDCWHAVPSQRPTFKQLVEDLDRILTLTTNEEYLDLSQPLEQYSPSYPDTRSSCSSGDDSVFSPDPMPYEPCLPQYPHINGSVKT
Method: as §1

[3] = target: T3, FGFR3 (Homo sapiens, UniProt P22607); assay: FGFR biochemical assay (LanthaScreen TR-FRET), FGFR3; details: ATP 35 μM, FGFR3 0.1 nM
T3 construct: purchased Carna
T3 sequence (P22607 23-806): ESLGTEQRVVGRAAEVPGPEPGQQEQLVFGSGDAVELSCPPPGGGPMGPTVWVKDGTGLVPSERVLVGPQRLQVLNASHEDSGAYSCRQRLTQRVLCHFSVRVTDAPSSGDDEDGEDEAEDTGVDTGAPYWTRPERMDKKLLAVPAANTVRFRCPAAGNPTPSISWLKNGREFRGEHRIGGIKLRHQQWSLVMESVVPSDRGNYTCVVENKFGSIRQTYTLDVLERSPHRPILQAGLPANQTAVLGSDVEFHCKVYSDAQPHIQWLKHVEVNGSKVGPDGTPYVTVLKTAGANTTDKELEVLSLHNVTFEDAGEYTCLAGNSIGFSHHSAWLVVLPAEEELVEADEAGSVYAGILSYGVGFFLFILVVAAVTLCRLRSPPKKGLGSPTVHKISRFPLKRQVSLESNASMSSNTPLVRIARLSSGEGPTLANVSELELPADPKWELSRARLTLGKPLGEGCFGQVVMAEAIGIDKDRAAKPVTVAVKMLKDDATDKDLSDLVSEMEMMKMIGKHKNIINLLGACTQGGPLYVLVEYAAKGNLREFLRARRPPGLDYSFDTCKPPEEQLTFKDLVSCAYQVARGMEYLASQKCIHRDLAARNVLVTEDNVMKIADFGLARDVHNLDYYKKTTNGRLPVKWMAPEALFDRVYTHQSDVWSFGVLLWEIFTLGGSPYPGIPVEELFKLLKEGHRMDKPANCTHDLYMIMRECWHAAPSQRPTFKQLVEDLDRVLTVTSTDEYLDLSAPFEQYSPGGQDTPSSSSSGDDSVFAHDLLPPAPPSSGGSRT
Method: as §1

[4] = tested on: RT4 (FGFR3); assay: Cellular proliferation assay (CellTiter-Glo), RT4; assay type: cell-based; details: Homo sapiens, RT-4, RT4 cells, 72 hours
Method: (§2) Compounds were tested proliferation assay in SNU-16, KATO-III, SNU-1, AGS, AN3CA, MFE280, MKN45, KLE, RT112-84, RT4, T24, UM-UC-3, KMS11, OPM-2, RAPI8226, U266, SUM 52PE, MCF7 and BaF3 cell lines. Test compounds were prepared in 10 mM DMSO stock solutions, add […] 1000× stock solution to 98 μL growth medium to get […] final concentration, 3-fold 9-points dilution was performed. Cell lines suspension of 95 μL were seeded into 96-well plate and incubated at 37° C. for 24 hours, add 5 μL 20× compounds solutions to 96-well plate according to the plate map with Echo550 liquid handler. Final DMSO concentration in each well is 0.1%, cell lines were incubated at 37° C. for 72 hours, then equilibrate the assay plate to room temperature before measurement, add 50 μL of CellTiter-Glo® Reagent into each well, mix contents for 2 minutes on an orbital shaker to induce cell lysis and incubate at room temperature for 10 minutes to stabilize luminescent signal, Chemiluminescence was then read on an EnVision reader. Inhibition Rate (Inh. %) was calculated relative to vehicle (DMSO) treated control wells using following formula: Inhibition Rate (Inh %)=100−(RLU compound−RLU blank)/(RLU control−RLU blank)*100%, Data were analyzed using Graphpad Prism 7.0, fitting to a 4-parameter equation to generate concentration response curves.

[5] = tested on: SNU-16 (FGFR2); assay: Cellular proliferation assay (CellTiter-Glo), SNU-16; assay type: cell-based; details: Homo sapiens, SNU-16 cells, 72 hours
Method: as §2

[6] = enzyme pre-incubation 10 minutes (for Example 1)

T1 sequence (P11362 22-822): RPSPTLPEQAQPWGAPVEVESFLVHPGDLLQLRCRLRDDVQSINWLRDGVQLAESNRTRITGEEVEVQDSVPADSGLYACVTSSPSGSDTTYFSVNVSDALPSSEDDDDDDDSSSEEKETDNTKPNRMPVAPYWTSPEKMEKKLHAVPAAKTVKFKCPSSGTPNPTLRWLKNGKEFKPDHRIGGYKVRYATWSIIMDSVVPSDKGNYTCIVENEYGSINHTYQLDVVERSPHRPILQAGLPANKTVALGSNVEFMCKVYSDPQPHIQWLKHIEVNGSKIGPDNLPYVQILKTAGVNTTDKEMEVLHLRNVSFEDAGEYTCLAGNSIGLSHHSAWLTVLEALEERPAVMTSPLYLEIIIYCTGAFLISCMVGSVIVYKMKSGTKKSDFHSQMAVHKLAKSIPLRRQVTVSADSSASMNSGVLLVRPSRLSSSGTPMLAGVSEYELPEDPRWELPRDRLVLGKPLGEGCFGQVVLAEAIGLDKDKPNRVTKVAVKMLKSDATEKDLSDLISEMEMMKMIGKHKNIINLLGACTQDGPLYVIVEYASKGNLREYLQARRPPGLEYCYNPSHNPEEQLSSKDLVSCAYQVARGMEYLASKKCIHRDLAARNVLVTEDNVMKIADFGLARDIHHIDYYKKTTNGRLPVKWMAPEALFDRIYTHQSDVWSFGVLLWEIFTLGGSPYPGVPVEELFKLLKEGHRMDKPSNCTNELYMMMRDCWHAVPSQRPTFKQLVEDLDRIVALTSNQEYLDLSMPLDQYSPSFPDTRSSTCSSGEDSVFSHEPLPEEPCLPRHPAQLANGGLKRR

SMILES: C=C(F)C(=O)Nc1ccc(-c2c(-c3ccc(Oc4nccc(C)n4)c(F)c3)c(C(N)=O)n3ccccc23)cc1 [Example 12]
- pIC50 ([1]; enzyme pre-incubation 60 min): 6.00 to 7.00
- pIC50 ([2]; enzyme pre-incubation 60 min): > 8.00
- pIC50 ([3]; enzyme pre-incubation 60 min): 7.00 to 8.00

SMILES: C=C(F)C(=O)Nc1ccc(-c2c(-c3ccc(Oc4nccc(C)n4)c(F)c3)c(C(N)=O)n3cccnc23)cc1 [Example 11]
- pIC50 ([1]; enzyme pre-incubation 60 min): 6.00 to 7.00
- pIC50 ([2]; enzyme pre-incubation 60 min): > 8.00
- pIC50 ([3]; enzyme pre-incubation 60 min): 7.00 to 8.00

SMILES: C=C(F)C(=O)Nc1ccc(-c2c(-c3ccc(Oc4nccc(C)n4)c(F)c3)c(C(N)=O)n3cc(C)cnc23)c(F)c1 [Example 18]
- pIC50 ([1]; enzyme pre-incubation 60 min): 7.00 to 8.00
- pIC50 ([2]; enzyme pre-incubation 60 min): > 8.00
- pIC50 ([3]; enzyme pre-incubation 60 min): > 8.00

SMILES: C=C(F)C(=O)Nc1ccc(-c2c(-c3ccc(Oc4nccc(C)n4)c(F)c3)c(C(N)=O)n3cc(Cl)cnc23)cc1 [Example 16]
- pIC50 ([1]; enzyme pre-incubation 60 min): 6.00 to 7.00
- pIC50 ([2]; enzyme pre-incubation 60 min): 7.00 to 8.00
- pIC50 ([3]; enzyme pre-incubation 60 min): 6.00 to 7.00

SMILES: C=C(F)C(=O)Nc1ccc(-c2c(-c3ccc(Oc4nccc(C)n4)c(F)c3)c(C(N)=O)n3cc(C#CC)cnc23)cc1 [Example 10]
- pIC50 ([1]; enzyme pre-incubation 60 min): 6.00 to 7.00
- pIC50 ([2]; enzyme pre-incubation 60 min): 7.00 to 8.00
- pIC50 ([3]; enzyme pre-incubation 60 min): 6.00 to 7.00

SMILES: C=C(F)C(=O)Nc1ccc(-c2c(-c3ccc(Oc4nccc(C)n4)cc3)c(C(N)=O)n3cc(N4CCN(C)CC4)cnc23)cc1 [Example 6]
- pIC50 ([1]; enzyme pre-incubation 60 min): 6.00 to 7.00
- pIC50 ([2]; enzyme pre-incubation 60 min): > 8.00
- pIC50 ([3]; enzyme pre-incubation 60 min): 7.00 to 8.00

SMILES: C=C(F)C(=O)Nc1ccc(-c2c(-c3ccc(Oc4nccc(C)n4)c(F)c3)c(C(N)=O)n3ccc(C)nc23)cc1 [Example 4]
- pIC50 ([1]; enzyme pre-incubation 60 min): 6.00 to 7.00
- pIC50 [4]: 6.00 to 7.00
- pIC50 ([2]; enzyme pre-incubation 60 min): 7.00 to 8.00
- pIC50 ([3]; enzyme pre-incubation 60 min): 6.00 to 7.00
- pIC50 [5]: 7.00 to 8.00

SMILES: CC#CC(=O)Nc1ccc(-c2c(-c3ccc(Oc4nccc(C)n4)c(F)c3)c(C(N)=O)n3cc(C)cnc23)cc1 [Example 13]
- pIC50 ([1]; enzyme pre-incubation 60 min): 6.00 to 7.00
- pIC50 [4]: 7.00 to 8.00
- pIC50 ([2]; enzyme pre-incubation 60 min): > 8.00
- pIC50 ([3]; enzyme pre-incubation 60 min): 7.00 to 8.00
- pIC50 [5]: > 8.00

SMILES: C=C(F)C(=O)Nc1ccc(-c2c(-c3ccc(Oc4nccc(C)n4)c(F)c3)c(C(N)=O)n3cc(C)cnc23)cc1 [Example 2]
- pIC50 ([1]; enzyme pre-incubation 60 min): 6.00 to 7.00
- pIC50 [4]: 7.00 to 8.00
- pIC50 ([2]; enzyme pre-incubation 60 min): > 8.00
- pIC50 ([3]; enzyme pre-incubation 60 min): 7.00 to 8.00
- pIC50 [5]: > 8.00

SMILES: Cc1cnc2c(-c3ccc(NC(=O)/C=C/CN4CC(O)C4)cc3)c(-c3ccc(Oc4nccc(C)n4)c(F)c3)c(C(N)=O)n2c1 [Example 23]
- pIC50 ([1]; enzyme pre-incubation 60 min): 7.00 to 8.00
- pIC50 [4]: 6.00 to 7.00
- pIC50 ([2]; enzyme pre-incubation 60 min): > 8.00
- pIC50 ([3]; enzyme pre-incubation 60 min): > 8.00
- pIC50 [5]: 7.00 to 8.00

SMILES: C=CC(=O)Nc1ccc(-c2c(-c3ccc(Oc4cccc(C)n4)cc3)c(C(N)=O)n3cccnc23)cc1 [Example 1]
- pIC50 [1, 6]: 6.00 to 7.00
- pIC50 [2, 6]: > 8.00
- pIC50 [3, 6]: 7.00 to 8.00
